According to article PMC9303812, “Asymmetrically Substituted m‐Terphenyl Phosphates Inhibit the Transcription Factor STAT5a” (Chembiochem, 2021):

Assays:
STAT1 = molecular target: T1, STAT1 (Homo sapiens, UniProt P42224); experiment: Fluorescence polarization (FP) binding assay, STAT1
T1 sequence (P42224 1-750): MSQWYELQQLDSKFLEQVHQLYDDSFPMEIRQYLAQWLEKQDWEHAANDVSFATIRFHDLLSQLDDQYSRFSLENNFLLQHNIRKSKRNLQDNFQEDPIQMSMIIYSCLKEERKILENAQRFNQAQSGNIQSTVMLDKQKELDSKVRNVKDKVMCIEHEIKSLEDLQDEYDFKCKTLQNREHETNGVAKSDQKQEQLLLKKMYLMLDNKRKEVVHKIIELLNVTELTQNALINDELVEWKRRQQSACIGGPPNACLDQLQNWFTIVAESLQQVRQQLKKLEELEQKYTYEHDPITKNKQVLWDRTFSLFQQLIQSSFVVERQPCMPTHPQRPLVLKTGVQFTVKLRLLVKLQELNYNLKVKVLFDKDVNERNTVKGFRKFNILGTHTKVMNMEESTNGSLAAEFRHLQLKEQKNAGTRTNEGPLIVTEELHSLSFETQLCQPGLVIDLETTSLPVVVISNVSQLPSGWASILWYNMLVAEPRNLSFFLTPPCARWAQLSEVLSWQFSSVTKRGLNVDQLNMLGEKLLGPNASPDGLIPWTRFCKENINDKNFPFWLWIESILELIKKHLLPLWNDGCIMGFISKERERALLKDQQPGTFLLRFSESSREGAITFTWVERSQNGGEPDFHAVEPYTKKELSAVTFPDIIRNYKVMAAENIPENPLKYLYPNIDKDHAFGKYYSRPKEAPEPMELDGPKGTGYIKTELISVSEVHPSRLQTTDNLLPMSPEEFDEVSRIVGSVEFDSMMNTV
Protocol: Ki values were calculated from IC50 values using the published equation.[2] […]
Table S2: Activities of 12 against STAT5 proteins in FP assays.
Fluorescence polarization assays
Fluorescence polarization assays were essentially carried out as previously described.[1] These assays quantitate to which extent a test compound is able to interfere with binding between a STAT protein and a fluorescein-labeled phosphotyrosine-containing peptide, which is known to bind to the SH2 domain of the respective STAT protein. The following protein […]
concentrations were used: 100 nM for STAT1, 150 nM for STAT3, 30 nM for STAT4, 180 nM for STAT5a, 90 nM for STAT5b and 105 nM for STAT6. All peptides were used at a concentration of 10 nM. The following peptides were used: 5 -carboxyfluorescein -GpYDKPHVL for STAT1; 5-carboxyfluorescein -GpYLPQTV-NH2 for STAT3; 5-carboxyfluorescein-GpYLPQNID-OH for STAT4; 5-carboxyfluorescein-GpYLVLDKW for STAT5a/b, and 5-carboxyfluorescein-GpYVPWQDLI-OH for STAT6. As a buffer system, 10 mM Tris (pH 8.0), 50 mM NaCl, 1 mM EDTA, 1 mM DTT, 0.1 % Nonidet P-40 substitute, and 2 % DMSO in water was used. All compounds tested were incubated for 1 h with the protein. Subsequently, the fluorescein-labeled peptide was added and the fluorescence polarization was measured with an Infinite F500 plate reader (Tecan) after another hour. IC50 values were converted to Ki-values using the published equation.[2] […]
3:2 solution was added . The solution was degassed by applying ultrasonic under vacuum for one minute four times. 14 mg of Pd(PPh3)4 (12 µmol, 5 mol %) were added and the solution was refluxed overnight. After cooling down, the mixture was extracted with ethyl acetate, washed with brine and dried over Na2SO4. The crude product was purified by flash column […]
Method 2: Synthesis of dibenzylphosphate esters
The corresponding phenol (1 eq.) was dissolved in 10 ml/mmol MeCN or DMF and CCl4 (5 eq.), DIPEA (2 eq.) and DMAP (0.1 eq.) were added. After cooling down to 0°C, dibenzyl phosphite (1.5 eq.) was added dropwise and stirring was continued at the same temperature. […]

IC50 (STAT1; FP assay)	Ki (STAT1; FP assay, Ki calculated from IC50 (n=3))	SMILES	melting point	inhibition at 200 µM (STAT1; read-out: STAT1 inhibition at 200 μM)
–	–	COc1cc(-c2cc(OP(=O)(O)O)cc(-c3cc(F)c(F)c(F)c3)c2)cc(OC)c1OC [6 b]	> 260 °C	51 ± 5%
90.6 ± 0.2 µM	44.6 ± 0.1 µM	COc1cc(-c2cc(-c3cc(F)c(F)c(F)c3)cc(C(F)P(=O)(O)O)c2)cc(OC)c1OC (stereo not shown) [compound 12]	–	–
